Read-outs that look alike come from different tables or passages of the source. Starred links: 1 amine or outer side, 2 acyl side, 3 side chain; linkers in the order of their positions; H or OH if unused. Residues, ends and D or L forms follow the SMILES beside them. Groups on a side chain read outwards from the residue. *: point of attachment. C20 diacid = O=C(O)CCCCCCCCCCCCCCCCCCC(=O)*; C18 diacid = O=C(O)CCCCCCCCCCCCCCCCC(=O)*; γGlu = O=C(O)[C@H](CCC(=O)[*:2])N[*:1]; AEEA = NCCOCCOCC(=O)O
Tests used:
Assay type in all cases: cell-based
human CRF2α receptor = target: T1, human CRF2α receptor (Homo sapiens, UniProt Q13324); experiment: cAMP agonism at human CRF2 α receptor in TeloHEAC cells (Example 7); settings: cAMP HTRF, TeloHEAC cells stably expressing human CRF2 α
T1 construct: expressed in transfected cells; host or cells: TeloHEAC
T1 sequence (Q13324 1-411): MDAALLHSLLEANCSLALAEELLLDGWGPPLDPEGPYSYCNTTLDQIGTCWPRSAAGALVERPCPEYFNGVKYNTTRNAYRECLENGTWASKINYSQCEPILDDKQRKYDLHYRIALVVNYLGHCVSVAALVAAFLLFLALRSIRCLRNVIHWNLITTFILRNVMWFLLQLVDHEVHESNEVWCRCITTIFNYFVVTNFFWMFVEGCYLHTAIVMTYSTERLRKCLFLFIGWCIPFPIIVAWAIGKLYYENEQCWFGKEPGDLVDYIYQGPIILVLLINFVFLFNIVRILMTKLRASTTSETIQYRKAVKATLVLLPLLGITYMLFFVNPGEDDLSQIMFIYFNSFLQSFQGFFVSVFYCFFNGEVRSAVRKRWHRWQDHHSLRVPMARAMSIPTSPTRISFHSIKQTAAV
Summary of the method: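 Percent activation was referenced to 1000 nM UCN2 (100%), and EC50 values taken as concentrations giving half of maximal response. The read-out was a homogeneous time-resolved fluorescence cAMP kit, fluorescence ratio 665/620 nm. Thawed cells (2000/well) saw compound for 30 min at RT in buffer with 2 mM IBMX and 0%/0.1% HSA.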

rat CRF2R α receptor = experiment: cAMP agonism at rat CRF2R α receptor in A7R5 rat aortic smooth muscle cells (Example 8); settings: cAMP HTRF, A7R5 rat aortic smooth muscle cell line, 0% HSA
Summary of the method: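 Potency (EC50) is the concentration reaching half-maximal activation, with responses scaled so that 1000 nM urocortin 2 equals 100%. Intracellular cAMP was quantified by homogeneous time-resolved fluorescence at 665/620 nm, 1 h after lysis-buffer reagents. Compound stimulation lasted 30 min at room temperature on 2000 IBMX-treated (2 mM) cells per well in HEPES-buffered HBSS.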

CRF1R receptor = target: T2, CRF1R receptor (Homo sapiens, UniProt P34998); experiment: cAMP activity at anti-target CRF1R, CRF1R-overexpression CHO cell line (Example 9); settings: for EC50: 0% HSA
T2 construct: host or cells: CHO-K1 clone 2
T2 sequence (P34998 24-415): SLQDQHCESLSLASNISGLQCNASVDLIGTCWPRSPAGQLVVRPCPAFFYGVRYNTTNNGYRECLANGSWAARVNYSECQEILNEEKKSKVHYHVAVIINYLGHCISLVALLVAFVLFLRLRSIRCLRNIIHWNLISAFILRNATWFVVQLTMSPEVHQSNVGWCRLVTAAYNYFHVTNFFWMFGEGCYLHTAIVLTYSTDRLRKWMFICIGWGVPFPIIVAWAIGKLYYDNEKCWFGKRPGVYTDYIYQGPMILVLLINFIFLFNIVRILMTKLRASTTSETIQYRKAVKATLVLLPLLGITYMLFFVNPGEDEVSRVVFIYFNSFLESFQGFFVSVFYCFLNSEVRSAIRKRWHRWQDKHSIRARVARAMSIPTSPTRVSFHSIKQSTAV
Summary of the method: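 Using thawed CRF1R-overexpressing CHO cells at 2000 per well, compound is applied for 30 min at RT in HBSS/HEPES buffer with IBMX. Cellular cAMP content is determined via HTRF, and percent activity is calculated against 1000 nM UCN2 defined as 100%.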

[1] = 0% HSA, read-out: EC50 [nM], 0% HSA
[2] = 0.1% HSA, read-out: EC50 [nM], 0.1% HSA
[3] = CRF1R-overexpression CHO cell line
[4] = CRF1R-overexpression CHO cell line, read-out: Emax (%)

SMILES | EC50 (human CRF2α receptor; [1]) [nM] | EC50 (human CRF2α receptor; [2]) [nM] | EC50 (rat CRF2R α receptor) [nM] | EC50 (CRF1R receptor; [3]) [nM] | Emax (CRF1R receptor; [4]) [%] | Emax (CRF1R receptor; CHO) [%]
CC[C@H](C)[C@H](NC(=O)[C@H](CCC(N)=O)NC(=O)[C@H](CCCCNC(=O)COCCOCCNC(=O)COCCOCCNC(=O)CC[C@H](NC(=O)CCCCCCCCCCCCCCCCC(=O)O)C(=O)O)NC(=O)[C@H](CC(C)C)NC(=O)[C@H](CCCCN)NC(=O)[C@@H](NC(=O)[C@@H]1CCCN1C(=O)[C@@H](NC(=O)[C@H](CC(=O)O)NC(=O)[C@H](CC(C)C)NC(=O)[C@H](CO)NC(=O)[C@H](CC(C)C)NC(=O)[C@@H](NC(=O)[C@@H](N)Cc1ccccc1)[C@@H](C)O)C(C)C)[C@@H](C)CC)C(=O)N[C@@H](CC(C)C)C(=O)N[C@@H](CC(C)C)C(=O)N[C@@H](CCCCN)C(=O)N[C@@H](CCC(N)=O)C(=O)N[C@@H](CCC(N)=O)C(=O)N[C@@H](CCCCN)C(=O)N[C@@H](CCC(N)=O)C(=O)N[C@@H](CCCCN)C(=O)N[C@@H](CCCCN)C(=O)N[C@@H](CCC(=O)O)C(=O)N[C@@H](CCCNC(=N)N)C(=O)N[C@@H](CCC(N)=O)C(=O)N[C@@H](CCC(N)=O)C(=O)N[C@@H](C)C(=O)N[C@@H](CCC(=O)O)C(=O)N[C@H](C(=O)N[C@@H](CC(N)=O)C(=O)N[C@H](C(=O)N[C@@H](CCC(N)=O)C(=O)N[C@@H](CC(C)C)C(=O)N[C@@H](CC(C)C)C(=O)N[C@@H](CCC(=O)O)C(=O)N[C@@H](CCCNC(=N)N)C(=O)N[C@H](C(N)=O)C(C)C)C(C)C)[C@@H](C)O [compound 54] (H-FTLSLDVPIKLK([AEEA-AEEA-γGlu-C18 diacid])QILLKQQKQKKERQQAETNVQLLERV-NH2) | 0.57 | 24.5 | 1.51 | – | – | 2.72
CC[C@H](C)[C@H](NC(=O)[C@H](CCC(N)=O)NC(=O)[C@H](CCCCNC(=O)COCCOCCNC(=O)COCCOCCNC(=O)CC[C@H](NC(=O)CCCCCCCCCCCCCCCCCCC(=O)O)C(=O)O)NC(=O)[C@H](CC(C)C)NC(=O)[C@H](CCCCN)NC(=O)[C@@H](NC(=O)[C@@H]1CCCN1C(=O)[C@@H](NC(=O)[C@H](CC(=O)O)NC(=O)[C@H](CC(C)C)NC(=O)[C@H](CO)NC(=O)[C@H](CC(C)C)NC(=O)[C@@H](NC(=O)[C@@H](N)Cc1ccccc1)[C@@H](C)O)C(C)C)[C@@H](C)CC)C(=O)N[C@@H](CC(C)C)C(=O)N[C@@H](CC(C)C)C(=O)N[C@@H](CCCCN)C(=O)N[C@@H](CCC(N)=O)C(=O)N[C@@H](CCC(N)=O)C(=O)N[C@@H](CCCCN)C(=O)N[C@@H](CCC(N)=O)C(=O)N[C@@H](CCCCN)C(=O)N[C@@H](CCCCN)C(=O)N[C@@H](CCC(=O)O)C(=O)N[C@@H](CCCNC(=N)N)C(=O)N[C@@H](CCC(N)=O)C(=O)N[C@@H](CCC(N)=O)C(=O)N[C@@H](C)C(=O)N[C@@H](CCC(=O)O)C(=O)N[C@H](C(=O)N[C@@H](CC(N)=O)C(=O)N[C@H](C(=O)N[C@@H](CCC(N)=O)C(=O)N[C@@H](CC(C)C)C(=O)N[C@@H](CC(C)C)C(=O)N[C@@H](CCC(=O)O)C(=O)N[C@@H](CCCNC(=N)N)C(=O)N[C@H](C(N)=O)C(C)C)C(C)C)[C@@H](C)O [compound 62] (H-FTLSLDVPIKLK([AEEA-AEEA-γGlu-C20 diacid])QILLKQQKQKKERQQAETNVQLLERV-NH2) | 0.8 | – | 2.9 | – | – | 2.28
CC[C@H](C)[C@H](NC(=O)[C@H](CCC(N)=O)NC(=O)[C@H](CCCCNC(=O)COCCOCCNC(=O)COCCOCCNC(=O)CC[C@H](NC(=O)CCCCCCCCCCCCCCCCCCC(=O)O)C(=O)O)NC(=O)[C@H](CC(C)C)NC(=O)[C@H](CCCCN)NC(=O)[C@@H](NC(=O)[C@@H]1CCCN1C(=O)[C@@H](NC(=O)[C@H](CC(=O)O)NC(=O)[C@H](CC(C)C)NC(=O)[C@H](CO)NC(=O)[C@H](CC(C)C)NC(=O)[C@@H](NC(=O)[C@@H](N)Cc1ccccc1)[C@@H](C)O)C(C)C)[C@@H](C)CC)C(=O)N[C@@H](CC(C)C)C(=O)N[C@@H](CC(C)C)C(=O)N[C@@H](CCC(=O)O)C(=O)N[C@@H](CCC(N)=O)C(=O)N[C@@H](CCC(N)=O)C(=O)N[C@@H](CCCCN)C(=O)N[C@@H](CCC(N)=O)C(=O)N[C@@H](CCCCN)C(=O)N[C@@H](CCCCN)C(=O)N[C@@H](CCC(=O)O)C(=O)N[C@@H](CCCNC(=N)N)C(=O)N[C@@H](CCC(N)=O)C(=O)N[C@@H](CCC(N)=O)C(=O)N[C@@H](C)C(=O)N[C@@H](CCC(=O)O)C(=O)N[C@H](C(=O)N[C@@H](CC(N)=O)C(=O)N[C@H](C(=O)N[C@@H](CCC(N)=O)C(=O)N[C@@H](CC(C)C)C(=O)N[C@@H](CC(C)C)C(=O)N[C@@H](CCC(=O)O)C(=O)N[C@@H](CCCNC(=N)N)C(=O)N[C@H](C(N)=O)C(C)C)C(C)C)[C@@H](C)O [compound 63] (H-FTLSLDVPIKLK([AEEA-AEEA-γGlu-C20 diacid])QILLEQQKQKKERQQAETNVQLLERV-NH2) | 0.63 | – | 4.73 | > 1000 | 4.68 | –

More lines, main results first:

EC50 (human CRF2α receptor; [1]) [nM] | EC50 (human CRF2α receptor; [2]) [nM] | EC50 (rat CRF2R α receptor) [nM] | EC50 (CRF1R receptor; [3]) [nM] | Emax (CRF1R receptor; [4]) [%] | SMILES | Emax (CRF1R receptor; CHO) [%]
0.7 | 45.8 | 0.76 | > 1000 | 5.3 | CC[C@H](C)[C@H](NC(=O)[C@H](CCC(N)=O)NC(=O)[C@H](CCCCNC(=O)COCCOCCNC(=O)COCCOCCNC(=O)CC[C@H](NC(=O)CCCCCCCCCCCCCCCCC(=O)O)C(=O)O)NC(=O)[C@@H](NC(=O)[C@H](CCCCN)NC(=O)[C@@H](NC(=O)[C@@H]1CCCN1C(=O)[C@@H](NC(=O)[C@H](CC(=O)O)NC(=O)[C@H](CC(C)C)NC(=O)[C@H](CO)NC(=O)[C@H](CC(C)C)NC(=O)[C@@H](NC(=O)[C@@H](N)Cc1ccccc1)[C@@H](C)O)C(C)C)[C@@H](C)O)[C@@H](C)CC)C(=O)N[C@@H](CC(C)C)C(=O)N[C@@H](CC(C)C)C(=O)N[C@@H](CCCCN)C(=O)N[C@@H](CCC(N)=O)C(=O)N[C@@H](CCC(N)=O)C(=O)N[C@@H](CCCCN)C(=O)N[C@@H](CCC(N)=O)C(=O)N[C@@H](CCCCN)C(=O)N[C@@H](CCCCN)C(=O)N[C@@H](CCC(=O)O)C(=O)N[C@@H](CCCNC(=N)N)C(=O)N[C@@H](CCC(N)=O)C(=O)N[C@@H](CCC(N)=O)C(=O)N[C@@H](C)C(=O)N[C@@H](CCC(=O)O)C(=O)N[C@@H](CCCCN)C(=O)N[C@@H](CC(N)=O)C(=O)N[C@@H](CCCCN)C(=O)N[C@@H](CCC(N)=O)C(=O)N[C@@H](CC(C)C)C(=O)N[C@@H](CC(C)C)C(=O)N[C@@H](CCC(=O)O)C(=O)N[C@@H](CCCNC(=N)N)C(=O)N[C@H](C(N)=O)C(C)C [compound 52] (H-FTLSLDVPTKIK([AEEA-AEEA-γGlu-C18 diacid])QILLKQQKQKKERQQAEKNKQLLERV-NH2; N-terminus assumed) | –
1.01 | 55.1 | 1.32 | > 1000 | 4.14 | CC[C@H](C)[C@H](NC(=O)[C@H](CCC(N)=O)NC(=O)[C@H](CCCCNC(=O)COCCOCCNC(=O)COCCOCCNC(=O)CC[C@H](NC(=O)CCCCCCCCCCCCCCCCC(=O)O)C(=O)O)NC(=O)[C@@H](NC(=O)[C@H](CCCCN)NC(=O)[C@@H](NC(=O)[C@@H]1CCCN1C(=O)[C@@H](NC(=O)[C@H](CC(=O)O)NC(=O)[C@H](CC(C)C)NC(=O)[C@H](CO)NC(=O)[C@H](CC(C)C)NC(=O)[C@@H](NC(=O)[C@@H](N)Cc1ccccc1)[C@@H](C)O)C(C)C)[C@@H](C)O)[C@@H](C)CC)C(=O)N[C@@H](CC(C)C)C(=O)N[C@@H](CC(C)C)C(=O)N[C@@H](CCCCN)C(=O)N[C@@H](CCC(N)=O)C(=O)N[C@@H](CCC(N)=O)C(=O)N[C@@H](CCCCN)C(=O)N[C@@H](CCC(N)=O)C(=O)N[C@@H](CCCCN)C(=O)N[C@@H](CCCCN)C(=O)N[C@@H](CCC(=O)O)C(=O)N[C@@H](CCCNC(=N)N)C(=O)N[C@@H](CCC(N)=O)C(=O)N[C@@H](CCC(N)=O)C(=O)N[C@@H](C)C(=O)N[C@@H](CCC(=O)O)C(=O)N[C@H](C(=O)N[C@@H](CC(N)=O)C(=O)N[C@@H](CCCCN)C(=O)N[C@@H](CCC(N)=O)C(=O)N[C@@H](CC(C)C)C(=O)N[C@@H](CC(C)C)C(=O)N[C@@H](CCC(=O)O)C(=O)N[C@@H](CCCNC(=N)N)C(=O)N[C@H](C(N)=O)C(C)C)[C@@H](C)O [compound 53] (H-FTLSLDVPTKIK([AEEA-AEEA-γGlu-C18 diacid])QILLKQQKQKKERQQAETNKQLLERV-NH2) | –

From patent US12679878B2, “CRF2 receptor agonists and their use in therapy” (SANOFI, priority 2020, dated 2026)
